The text below walks through data of article PMC9921273, “Omega-3 PUFAs as a Dietary Supplement in Senile Systemic Amyloidosis” (Nutrients, 2023).

The target in assay [1] is T1, transthyretin (wt-TTR) (Homo sapiens, UniProt P02766). In words: ANS fluorescence displacement binding assay (also turbidimetric and ThT fibril formation assays). Set-up: wt-TTR tetramer, human plasma.
In assay [2] the target is T1, transthyretin (wt-TTR). In words: ANS fluorescence displacement binding assay (also turbidimetric fibril formation assay). Set-up: wt-TTR tetramer, human plasma.

Turning to `CC/C=C\C/C=C\C/C=C\C/C=C\C/C=C\C/C=C\CCC(=O)O` [DHA, docosahexaenoic acid], in assay [1], the IC50 (usually the concentration at which inhibition is half-maximal) turned out to be 12.1 ± 0.07 µM.
For the compound `CC/C=C\C/C=C\C/C=C\C/C=C\C/C=C\CCCC(=O)O` [EPA, eicosapentaenoic acid], the concentration for half-maximal inhibition (IC50) in assay [2] was found to be 13 ± 0.08 µM.
